Results reported in patent US20050143382A1 (4SC AG, priority 2003, published 2005).
pIC50: −log10 of the molar value.

Assays:
Type in all cases: biochemical
Conditions in all cases: recombinant human kinase, 1 μM ATP
Aurora B kinase = target: T1, Aurora B kinase (Homo sapiens, UniProt Q96GD4); test: 33PanQinase protein kinase activity assay, Aurora B
T1 construct: made in house; host or cells: Sf9 insect cells (baculovirus)
Method: (§1) The effect of the farazanopyrazine derivatives was tested on recombinant, human protein kinases. All protein kinases were expressed in Sf9 insect cells as human recombinant GST-fusion proteins or as His-tagged proteins by means of the baculovirus expression system. Protein kinases were purified by affinity chromatography using either GSH-agarose or Ni-NTH-agarose. The purity and identity of each was checked by SDS-PAGE/silver staining and by western blot analysis with specific antibodies.
(§2) A proprietary protein kinase assay (^33 PanQinase® Activity Assay) was used for measuring the kinase activity. All kinase assays were performed in 96-well FlashPlates™ in a 50 μl reaction volume. The assay for all enzymes contained 60 mM HEPES-NaOH, pH 7.5, 3 mM MgCl2, 3 mM MnCl2, 3 μM Na-orthovanadate, 1.2 mM DTT, 50 μg/ml PEG20000 and 1 μM [γ-^33P]-ATP (approx. 5×10^5 cpm per well).
(§3) The reaction cocktails were incubated at 30° C. for 80 minutes. The reaction was stopped with 50 μl of 2% (v/v) H3PO4, plates were aspirated and washed two times with 200 μl of 0.9% (w/v) NaCl. Incorporation of 33Pi was determined with a microplate scintillation counter. All assays were performed with a BeckmanCoulter/Sagian robotic system.

IGF-1 R = target: T2, IGF-1 R (Homo sapiens, UniProt P08069); test: 33PanQinase protein kinase activity assay, IGF-1 R
T2 construct: made in house; host or cells: Sf9 insect cells (baculovirus)
Method: as §1, §2, §3

SRC kinase = target: T3, SRC kinase (Homo sapiens, UniProt P12931); test: 33PanQinase protein kinase activity assay, SRC
T3 construct: made in house; host or cells: Sf9 insect cells (baculovirus)
Method: as §1, §2, §3

VEGF-R2 = target: T4, VEGF-R2 (Homo sapiens, UniProt P35968); test: 33PanQinase protein kinase activity assay, VEGF-R2
T4 construct: made in house; host or cells: Sf9 insect cells (baculovirus)
Method: as §1, §2, §3

T3 sequence (P12931 whole entry): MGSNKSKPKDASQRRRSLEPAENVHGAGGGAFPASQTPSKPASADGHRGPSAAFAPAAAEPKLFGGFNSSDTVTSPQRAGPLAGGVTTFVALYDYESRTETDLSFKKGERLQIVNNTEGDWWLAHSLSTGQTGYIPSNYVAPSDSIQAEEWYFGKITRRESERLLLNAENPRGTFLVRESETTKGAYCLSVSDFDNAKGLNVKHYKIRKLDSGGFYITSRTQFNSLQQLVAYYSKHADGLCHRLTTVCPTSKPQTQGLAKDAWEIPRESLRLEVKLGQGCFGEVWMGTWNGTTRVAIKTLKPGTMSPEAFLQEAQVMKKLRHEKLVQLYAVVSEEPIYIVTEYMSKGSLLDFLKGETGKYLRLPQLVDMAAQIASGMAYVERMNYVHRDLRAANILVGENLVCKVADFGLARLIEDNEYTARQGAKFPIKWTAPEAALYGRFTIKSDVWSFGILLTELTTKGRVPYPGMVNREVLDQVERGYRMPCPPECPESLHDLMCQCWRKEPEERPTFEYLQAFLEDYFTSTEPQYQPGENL
T4 sequence (P35968 20-1356): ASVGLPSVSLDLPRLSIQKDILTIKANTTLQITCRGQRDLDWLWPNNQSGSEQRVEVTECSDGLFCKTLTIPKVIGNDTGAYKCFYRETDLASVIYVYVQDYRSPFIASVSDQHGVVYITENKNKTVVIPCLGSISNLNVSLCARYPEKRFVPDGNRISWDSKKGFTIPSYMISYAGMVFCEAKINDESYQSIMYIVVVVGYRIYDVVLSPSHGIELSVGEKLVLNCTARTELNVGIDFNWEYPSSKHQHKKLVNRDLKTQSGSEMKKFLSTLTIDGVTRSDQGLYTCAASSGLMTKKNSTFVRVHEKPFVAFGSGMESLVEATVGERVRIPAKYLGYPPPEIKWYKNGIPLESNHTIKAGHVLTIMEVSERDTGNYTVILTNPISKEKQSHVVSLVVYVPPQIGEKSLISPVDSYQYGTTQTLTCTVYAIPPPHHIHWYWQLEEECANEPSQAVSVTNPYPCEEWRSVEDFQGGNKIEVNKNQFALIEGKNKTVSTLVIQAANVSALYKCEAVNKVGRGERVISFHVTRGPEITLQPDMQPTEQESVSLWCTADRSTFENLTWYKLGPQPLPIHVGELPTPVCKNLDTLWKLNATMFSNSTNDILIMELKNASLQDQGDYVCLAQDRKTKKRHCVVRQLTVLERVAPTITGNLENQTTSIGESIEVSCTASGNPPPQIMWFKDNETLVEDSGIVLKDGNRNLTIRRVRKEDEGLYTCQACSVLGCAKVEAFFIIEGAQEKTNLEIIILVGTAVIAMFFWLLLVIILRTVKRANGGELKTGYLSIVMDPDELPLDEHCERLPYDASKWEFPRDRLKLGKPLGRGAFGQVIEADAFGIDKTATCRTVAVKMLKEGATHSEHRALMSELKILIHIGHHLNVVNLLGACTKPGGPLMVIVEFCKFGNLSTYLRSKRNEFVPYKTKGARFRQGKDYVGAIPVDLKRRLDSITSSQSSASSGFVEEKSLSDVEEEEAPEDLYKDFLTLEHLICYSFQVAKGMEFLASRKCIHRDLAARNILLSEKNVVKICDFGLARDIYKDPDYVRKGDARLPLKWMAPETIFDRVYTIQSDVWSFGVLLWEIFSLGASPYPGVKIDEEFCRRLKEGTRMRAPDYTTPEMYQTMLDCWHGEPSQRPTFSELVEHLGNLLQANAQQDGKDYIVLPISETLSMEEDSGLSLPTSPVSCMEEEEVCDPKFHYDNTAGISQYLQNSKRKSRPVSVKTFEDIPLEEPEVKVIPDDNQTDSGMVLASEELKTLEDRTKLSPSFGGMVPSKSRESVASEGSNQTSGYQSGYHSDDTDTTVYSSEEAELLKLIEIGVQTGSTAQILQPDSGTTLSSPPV
T2 sequence (P08069 31-1367): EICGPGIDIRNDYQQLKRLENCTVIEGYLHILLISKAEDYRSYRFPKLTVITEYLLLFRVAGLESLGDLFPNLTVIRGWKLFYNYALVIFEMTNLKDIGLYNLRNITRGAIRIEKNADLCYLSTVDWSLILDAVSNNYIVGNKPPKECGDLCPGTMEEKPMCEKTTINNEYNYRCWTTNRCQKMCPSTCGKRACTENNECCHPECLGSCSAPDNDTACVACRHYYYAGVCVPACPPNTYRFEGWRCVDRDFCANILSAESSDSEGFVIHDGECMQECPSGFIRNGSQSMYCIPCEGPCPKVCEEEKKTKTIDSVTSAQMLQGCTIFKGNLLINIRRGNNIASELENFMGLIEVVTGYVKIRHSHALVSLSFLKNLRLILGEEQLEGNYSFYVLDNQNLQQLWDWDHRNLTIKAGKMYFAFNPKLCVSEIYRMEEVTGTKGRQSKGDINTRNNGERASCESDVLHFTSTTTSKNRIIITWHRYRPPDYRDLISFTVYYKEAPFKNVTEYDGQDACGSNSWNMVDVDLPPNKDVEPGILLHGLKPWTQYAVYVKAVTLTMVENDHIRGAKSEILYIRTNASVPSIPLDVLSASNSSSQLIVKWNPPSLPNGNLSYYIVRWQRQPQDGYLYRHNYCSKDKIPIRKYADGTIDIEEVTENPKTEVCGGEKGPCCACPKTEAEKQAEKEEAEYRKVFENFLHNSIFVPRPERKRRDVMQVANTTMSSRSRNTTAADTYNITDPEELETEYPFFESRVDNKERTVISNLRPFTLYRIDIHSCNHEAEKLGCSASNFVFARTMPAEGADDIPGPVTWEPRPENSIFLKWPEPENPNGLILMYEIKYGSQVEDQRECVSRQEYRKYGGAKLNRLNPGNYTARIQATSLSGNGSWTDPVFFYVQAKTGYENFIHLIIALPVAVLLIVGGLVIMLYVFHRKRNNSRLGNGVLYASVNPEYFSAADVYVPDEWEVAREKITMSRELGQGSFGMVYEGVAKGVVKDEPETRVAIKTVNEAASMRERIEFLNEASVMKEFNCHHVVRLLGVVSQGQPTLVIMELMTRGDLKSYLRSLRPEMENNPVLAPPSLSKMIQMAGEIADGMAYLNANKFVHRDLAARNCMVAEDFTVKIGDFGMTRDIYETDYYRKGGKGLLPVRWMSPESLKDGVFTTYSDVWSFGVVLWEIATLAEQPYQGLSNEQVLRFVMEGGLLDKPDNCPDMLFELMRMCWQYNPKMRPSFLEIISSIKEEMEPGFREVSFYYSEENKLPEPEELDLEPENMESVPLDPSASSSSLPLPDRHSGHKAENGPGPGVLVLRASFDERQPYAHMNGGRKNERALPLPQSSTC
T1 sequence (Q96GD4 whole entry): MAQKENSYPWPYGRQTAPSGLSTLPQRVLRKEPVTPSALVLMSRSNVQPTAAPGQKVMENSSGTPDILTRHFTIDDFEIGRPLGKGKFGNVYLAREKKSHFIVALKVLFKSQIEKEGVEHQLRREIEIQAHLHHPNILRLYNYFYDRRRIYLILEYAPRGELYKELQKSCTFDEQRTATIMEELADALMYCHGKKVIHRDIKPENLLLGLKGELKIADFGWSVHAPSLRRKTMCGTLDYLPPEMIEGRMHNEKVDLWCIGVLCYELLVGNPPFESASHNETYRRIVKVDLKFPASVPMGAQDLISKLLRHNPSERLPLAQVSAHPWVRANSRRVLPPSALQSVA

## Oc1ccc(C=NNc2nc3nonc3nc2Nc2ccc(Cl)c(Cl)c2)c(O)c1 [Example 189]
Aurora B kinase
  pIC50: > 5.00

## O=C(O)c1cccc(-c2ccc(C=NNc3nc4nonc4nc3NCc3ccccc3)o2)c1 [Example 111]
Aurora B kinase
  pIC50: > 5.00

## O=C(O)c1cc(-c2ccc(C=NNc3nc4nonc4nc3Nc3ccccc3F)o2)ccc1O [Example 23]
Aurora B kinase
  pIC50: > 5.00
IGF-1 R
  pIC50: > 6.00
SRC kinase
  pIC50: > 6.00
VEGF-R2
  pIC50: > 5.70

## Oc1ccc(C=NNc2nc3nonc3nc2Nc2ccc(F)c(Cl)c2)c(O)c1 [Example 165]
Aurora B kinase
  pIC50: > 5.00
VEGF-R2
  pIC50: > 5.70

## O=S(=O)(O)c1ccc(C=NNc2nc3nonc3nc2Nc2ccc(F)c(Cl)c2)o1 [Example 181]
Aurora B kinase
  pIC50: > 5.00

## O=C(O)c1cc(-c2ccc(C=NNc3nc4nonc4nc3Nc3ccc(F)c(Cl)c3)o2)ccc1Cl [Example 176]
Aurora B kinase
  pIC50: > 5.00
IGF-1 R
  pIC50: > 6.00
SRC kinase
  pIC50: > 6.00
VEGF-R2
  pIC50: > 5.70

## O=C(O)c1cc(-c2ccc(C=NNc3nc4nonc4nc3Nc3ccc(Cl)c(Cl)c3)o2)ccc1Cl [Example 196]
Aurora B kinase
  pIC50: > 5.00
IGF-1 R
  pIC50: > 6.00
SRC kinase
  pIC50: > 6.00
VEGF-R2
  pIC50: > 5.70

## O=C(O)c1ccc(-c2ccc(C=NNc3nc4nonc4nc3NCc3ccccc3)o2)cc1 [Example 117]
Aurora B kinase
  pIC50: > 5.00

## O=C1Nc2ccccc2C1=NNc1nc2nonc2nc1Nc1ccccc1 [Example 95, 3-[(6-Phenylamino-[1,2,5]oxadiazolo [3,4-b]pyrazin-5-yl)-hydrazono]-1,3-dihydro-indol-2-one]
Aurora B kinase
  pIC50: > 5.00
IGF-1 R
  pIC50: > 6.00

## O=C(O)c1cc(-c2ccc(C=NNc3nc4nonc4nc3Nc3ccc(Br)cc3)o2)ccc1Cl [Example 52]
Aurora B kinase
  pIC50: > 5.00
IGF-1 R
  pIC50: > 6.00
SRC kinase
  pIC50: > 6.00
VEGF-R2
  pIC50: > 5.70

## Oc1ccc(C=NNc2nc3nonc3nc2Nc2ccccc2)c(O)c1 [Example 81]
Aurora B kinase
  pIC50: > 5.00

## O=C(O)c1cccc(-c2ccc(C=NNc3nc4nonc4nc3Nc3ccccc3)o2)c1 [Example 89]
Aurora B kinase
  pIC50: > 5.00

## Oc1ccc(C=NNc2nc3nonc3nc2Nc2cccc(Cl)c2)c(O)c1 [Example 147]
Aurora B kinase
  pIC50: > 5.00

## COc1ccccc1Nc1nc2nonc2nc1NN=Cc1cc(I)cc(I)c1O [Example 47]
Aurora B kinase
  pIC50: > 5.00

## O=C(O)c1ccc(-c2ccc(C=NNc3nc4nonc4nc3Nc3ccc(Cl)c(Cl)c3)o2)cc1 [Example 199]
Aurora B kinase
  pIC50: > 5.00
IGF-1 R
  pIC50: > 6.00
SRC kinase
  pIC50: > 6.00
VEGF-R2
  pIC50: > 5.70

## COc1cc(C=NNc2nc3nonc3nc2Nc2ccccc2F)cc([N+](=O)[O-])c1O [Example 7]
Aurora B kinase
  pIC50: > 5.00
SRC kinase
  pIC50: > 6.00
VEGF-R2
  pIC50: > 5.70

## O=C(O)c1cccc(-c2ccc(C=NNc3nc4nonc4nc3Nc3ccc(F)c(Cl)c3)o2)c1 [Example 173]
Aurora B kinase
  pIC50: > 5.00
IGF-1 R
  pIC50: > 6.00
SRC kinase
  pIC50: > 6.00

## Oc1ccc(C=NNc2nc3nonc3nc2Nc2ccc(F)cc2)c(O)c1 [Example 126]
Aurora B kinase
  pIC50: > 5.00

## O=C(O)c1cccc(-c2ccc(C=NNc3nc4nonc4nc3Nc3ccc(Cl)c(Cl)c3)o2)c1 [Example 194]
Aurora B kinase
  pIC50: > 5.00
IGF-1 R
  pIC50: > 6.00
SRC kinase
  pIC50: > 6.00
VEGF-R2
  pIC50: > 5.70

## NC(=O)c1cccc(-c2ccc(C=NNc3nc4nonc4nc3Nc3ccc(Cl)c(Cl)c3)o2)c1 [Example 198]
IGF-1 R
  pIC50: > 6.00
SRC kinase
  pIC50: > 6.00
VEGF-R2
  pIC50: > 5.70

## Cc1cccc(Nc2nc3nonc3nc2NN=Cc2ccc(-c3ccc(Cl)c(C(=O)O)c3)o2)c1C [Example 2]
IGF-1 R
  pIC50: > 6.00
SRC kinase
  pIC50: > 6.00
VEGF-R2
  pIC50: > 5.70

## O=C(O)c1cccc(-c2ccc(C=NNc3nc4nonc4nc3Nc3cccc(Cl)c3)o2)c1 [Example 154]
Aurora B kinase
  pIC50: > 5.00
IGF-1 R
  pIC50: > 6.00
SRC kinase
  pIC50: > 6.00
VEGF-R2
  pIC50: > 5.70
